Key:
[1] = system: human cancer cells, including multi-drug resistant cancer cells; conditions: wide variety of human cancer cells; cited from earlier work
[2] = system: colchicine binding site on tubulin; conditions: compared with colchicine; cited from earlier work
[3] = system: angiogenesis; conditions: cited from earlier work
[4] = cited from earlier work
[5] = system: KB cell line; test: Cell growth inhibition assay on human cancer lines, parental KB; format: cell-based; conditions: cell type Oral, read-out: Cytotoxicity against KB
Method: (§1) Cell Growth Inhibition Assay: MCF-7 breast carcinoma cells were maintained in plastic dishes in DMEM medium supplemented with 10% fetal bovine serum. For in vitro treatment, tumor cells were seeded in […] of culture medium/well in 96-well plates to a final cell density of 6×10^3 cell/mL and incubated in a CO2 incubator at 37° C. for 24 h. The cells were treated with at least five different concentrations of a test indole compound, and incubated in a CO2 incubator at 37° C. for 72 h. The number of viable cells was estimated using MTS assay and absorbance was measured at 490 nm. Cytotoxicity of the test compounds was expressed in terms of IC50 values. The values presented represent averages of three independent experiments, each with duplicate samples.
(§2) Cell Growth Inhibition Assay on Multiple-drug Resistant Human Cancer Lines: Indole compounds were tested against several panels of drug-resistant cell lines. It is well known that several anti-mitotic agents, including vinca alkaloid (vincristine, vinblastine) and taxol, have been introduced in clinic to treat various human cancers. […] The mechanisms responsible for taxol resistance include overexpression of p-glycoprotein and mutation of tubulin. For comparison, […] anti-mitotic agents, i.e., Vincristine, VP-16, Cisplatin, CPT (camptothecin), and Taxol (paclitaxel) were also tested against several panels of drug-resistant cell lines. […]

[6] = system: HONE-1 cell line; test: Cell growth inhibition assay on human cancer lines, parental HONE-1; format: cell-based; conditions: NPC, read-out: Cytotoxicity against HONE-1
Method: as §1, §2

Row | Structure (SMILES) | Cytotoxicity against human cancer cells [1] | Affinity for the colchicine binding site on tubulin relative to colchicine [2] | Anti-angiogenesis activity [3] | Water-solubility [4] | IC50 [5] | IC50 [6]
1 | COc1ccc(/C=C\c2cc(OC)c(OC)c(OC)c2)cc1O [CA-4, combretastatin A-4] | strong cytotoxicity | higher affinity for the colchicine binding site on tubulin than colchicine itself | anti-angiogenesis activity | low water-solubility |  | 
2 | N.N.[Cl][Pt][Cl] [Cisplatin] |  |  |  |  | 0.003 µM | 3 µM
